Experimental findings from patent publication US8598365B2, “Herbicides” (Syngenta Limited, priority 2007, dated 2013) are described below.

Holding throughout (format): in vivo
Assay [1] relates to Alopecurus myosuroides (ALOMY). The experiment in a line: Example B post-emergence herbicidal activity. To be noted: 312 h, evaluated after 13 days, read-out: Post-emergence activity ALOMY (100=total damage to plant; 0=no damage to plant); for pest or weed control at 250 g/ha: rate 250 g/ha. A digest of the protocol: (§1)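 Seeds sown in standard soil in pots and grown in a glasshouse at 24/16 °C day/night, 14 h light, 65% humidity. Sprayed 1 day after sowing (pre-emergence) or after 8 days (post-emergence) with aqueous spray of active in acetone/water 50:50 with 0.5% Tween 20. Damage scored after 13 days, 0–100 scale.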

Assay [2] relates to Amaranthus retoflexus (AMARE). The experiment in a line: Example B post-emergence herbicidal activity. To be noted: Amaranthus retroflexus, 312 h, evaluated after 13 days, read-out: Post-emergence activity AMARE (100=total damage to plant; 0=no damage to plant); for pest or weed control at 250 g/ha: rate 250 g/ha. Put shortly: as §1
For assay [3], the system named is Avena fatua (AVEFA). Put plainly: Example B post-emergence herbicidal activity. To be noted: 312 h, evaluated after 13 days, read-out: Post-emergence activity AVEFA (100=total damage to plant; 0=no damage to plant); for pest or weed control at 250 g/ha: rate 250 g/ha. A digest of the protocol:
as §1

Assay [4] has as its system Echinochloa crus-galli (ECHCG). The experiment in a line: Example B post-emergence herbicidal activity. Particulars: 312 h, evaluated after 13 days, read-out: Post-emergence activity ECHCG (100=total damage to plant; 0=no damage to plant); for pest or weed control at 250 g/ha: rate 250 g/ha. A digest of the protocol: as §1
Assay [5] has as its system Setaria faberi (SETFA). The experiment in a line: Example B post-emergence herbicidal activity. Particulars: 312 h, evaluated after 13 days, read-out: Post-emergence activity SETFA (100=total damage to plant; 0=no damage to plant); for pest or weed control at 250 g/ha: rate 250 g/ha. A digest of the protocol:
as §1

The test system of assay [6] is Alopecurus myosuroides (ALOMY). Put plainly: Example B pre-emergence herbicidal activity. To be noted: 312 h, evaluated after 13 days, read-out: Pre-Emergence Activity ALOMY (100=total damage to plant; 0=no damage to plant); for pest or weed control at 250 g/ha: rate 250 g/ha. As to the method:
(§2) Seeds of a variety of test species were sown in standard soil in pots. After cultivation for one day (pre-emergence) or after 8 days cultivation (post-emergence) under controlled conditions in a glasshouse (at 24/16° C., day/night; 14 hours light; 65% humidity), the plants were sprayed with an aqueous spray solution derived from the formulation of the technical active ingredient in acetone/water (50:50) solution containing 0.5% Tween 20 (polyoxyethelyene sorbitan monolaurate, CAS RN 9005-64-5).
(§3) The test plants were then grown in a glasshouse under controlled conditions in a glasshouse (at 24/16° C., day/night; 14 hours light; 65% humidity) and watered twice daily. After 13 days for pre and post-emergence, the test was evaluated (100=total damage to plant; 0=no damage to plant).
(§4) Alopecurus myosuroides (ALOMY), Avena fatua (AVEFA), Setaria faberi (SETFA), Echinochloa crus-galli (ECHCG), Solanum nigrum (SOLNI) and Amaranthus retoflexus (AMARE)

Assay [7] relates to Amaranthus retoflexus (AMARE). Put plainly: Example B pre-emergence herbicidal activity. To be noted: Amaranthus retroflexus, 312 h, evaluated after 13 days, read-out: Pre-Emergence Activity AMARE (100=total damage to plant; 0=no damage to plant); for pest or weed control at 250 g/ha: rate 250 g/ha. On the procedure:
as §2, §3, §4

Assay [8] deals with Avena fatua (AVEFA). Put plainly: Example B pre-emergence herbicidal activity. Particulars: 312 h, evaluated after 13 days, read-out: Pre-Emergence Activity AVEFA (100=total damage to plant; 0=no damage to plant); for pest or weed control at 250 g/ha: rate 250 g/ha. On the procedure:
as §2, §3, §4

The subject of assay [9] is Echinochloa crus-galli (ECHCG). The experiment in a line: Example B pre-emergence herbicidal activity. To be noted: 312 h, evaluated after 13 days, read-out: Pre-Emergence Activity ECHCG (100=total damage to plant; 0=no damage to plant); for pest or weed control at 250 g/ha: rate 250 g/ha. As to the method:
as §2, §3, §4

For assay [10], the system named is Setaria faberi (SETFA). The experiment in a line: Example B pre-emergence herbicidal activity. Particulars: 312 h, evaluated after 13 days, read-out: Pre-Emergence Activity SETFA (100=total damage to plant; 0=no damage to plant); for pest or weed control at 250 g/ha: rate 250 g/ha. As to the method: as §2, §3, §4

Each structure is given as a SMILES string.

`Cc1cc(Cl)ccc1-c1nc(C2C(=O)[C@@H]3CC[C@@H](C3)C2=O)c(C)s1` (stereo partly drawn) [Compound T14]: the pest or weed control at 1000 g/ha was 90% in [1] (rate 1000 g/ha); 20% in assay [2] (rate 1000 g/ha); 90% in the assay on Avena fatua (AVEFA) [3] (rate 1000 g/ha); 100% in assay [4] (rate 1000 g/ha); 100% with Setaria faberi (SETFA) [5] (rate 1000 g/ha); 30% in assay [6] (rate 1000 g/ha). In addition, the pest or weed control at 1000 g/ha in assay [7] (rate 1000 g/ha) turned out to be 0%; with Avena fatua (AVEFA) [8] (rate 1000 g/ha), 80%; in assay [9] (rate 1000 g/ha), 90%; with Setaria faberi (SETFA) [10] (rate 1000 g/ha), 70%.

As to `CCc1sc(-c2ccc(C)cc2)nc1C1=C(OC(C)=O)[C@H]2CC[C@H](C2)C1=O` [Compound P15], the pest or weed control at 250 g/ha in assay [1] stood at 100%; in [2], 0%; in the assay with Avena fatua (AVEFA) [3], 90%; in assay [4] it was 100%; with Setaria faberi (SETFA) [5] it was 100%; in assay [6], 90%. Moreover, the pest or weed control at 250 g/ha in [7] was 0%; in the assay on Avena fatua (AVEFA) [8] it was 60%; in assay [9] it was 100%; with Setaria faberi (SETFA) [10], 90%.

As to `CC(=O)OC1=C(c2nc(-c3ccc(Br)cc3C)sc2C)C(=O)[C@H]2CC[C@@H]1C2` [Compound P12], the pest or weed control at 250 g/ha worked out at 100% in [1]; 0% in [2]; 90% with Avena fatua (AVEFA) [3]; 100% in assay [4]; 100% in the assay on Setaria faberi (SETFA) [5]; 30% in assay [6]. Further, the pest or weed control at 250 g/ha in assay [7] stood at 0%; in the assay with Avena fatua (AVEFA) [8], 20%; in assay [9], 20%; in the assay with Setaria faberi (SETFA) [10], 100%.

For the compound `Cc1sc(-c2ccc(F)cc2F)nc1C1C(=O)[C@@H]2CC[C@@H](C2)C1=O` (stereo partly drawn) [Compound T70], the pest or weed control at 250 g/ha in assay [1] worked out at 90%; in assay [2], 40%; with Avena fatua (AVEFA) [3] it was 50%; in [4], 100%; with Setaria faberi (SETFA) [5] it was 100%; in [6] it was 70%. The pest or weed control at 250 g/ha amounted to 100% in assay [7], 30% in the assay with Avena fatua (AVEFA) [8], 60% in [9] and 100% with Setaria faberi (SETFA) [10].

`CCc1sc(-c2c(C)cc(Cl)cc2F)nc1C1C(=O)[C@@H]2CC[C@@H](C2)C1=O` (stereo partly drawn) [Compound T45]: the pest or weed control at 250 g/ha turned out to be 100% in assay [1]; 0% in assay [2]; 100% with Avena fatua (AVEFA) [3]; 100% in [4]; 100% in the assay with Setaria faberi (SETFA) [5]; 90% in assay [6]. In addition, the pest or weed control at 250 g/ha in [7] stood at 0%; with Avena fatua (AVEFA) [8], 30%; in assay [9], 100%; in the assay on Setaria faberi (SETFA) [10] it was 100%.

As for `Cc1sc(-c2ccc(Br)cc2F)nc1C1C(=O)[C@@H]2CC[C@@H](C2)C1=O` (stereo partly drawn) [Compound T32], the pest or weed control at 250 g/ha in assay [1] worked out at 100%; in assay [2], 0%; in the assay on Avena fatua (AVEFA) [3] it was 90%; in assay [4] it was 100%; with Setaria faberi (SETFA) [5], 100%; in assay [6] it was 90%. The pest or weed control at 250 g/ha in assay [7] amounted to 0%; with Avena fatua (AVEFA) [8], 80%; in assay [9], 100%; with Setaria faberi (SETFA) [10] it was 100%.
